Where “and” joins values, the source holds several entries; their conditions need not be identical. Equal entries are not always repeated. These antisense oligonucleotides have a phosphorothioate backbone; sugars and methylation of C are not fully specified.
Assays:
Conditions in all cases: ASO
[1] = molecular target: SMAD4
[2] = molecular target: MAP2K4
[3] = molecular target: TNF
[4] = molecular target: BIRC3
Note: test concentration or dose not given here.

For GACAGGCATCATTACTTG, the remaining target (mRNA or protein) (fraction of control) [1] was ≥ 1.
In the case of GAGATAATCACTTTTGAATT, the remaining target (mRNA or protein) (fraction of control) [2] is reported as ≥ 1.
GAGCCGCCGCCGCCGCTCGG was tested, and the remaining target (mRNA or protein) (fraction of control) [2] was ≥ 1.
GAGTAAACCTTGCTGTAGAT gave a remaining target (mRNA or protein) (fraction of control) [2] of 0.73.
GATATCAATCGACATACATG gave a remaining target (mRNA or protein) (fraction of control) [2] of 0.83.
For GATCATGCTTTCCGTGCTCAT, the remaining target (mRNA or protein) (fraction of control) [3] was 0.94.
GATCCTCATCTGGTCCAATG showed a remaining target (mRNA or protein) (fraction of control) [2] of 0.6.
With GATGACACTGACGCAAAT the remaining target (mRNA or protein) (fraction of control) [1] was ≥ 1.
With GATTTTGCCTAAAATTTCTT the remaining target (mRNA or protein) (fraction of control) [2] was ≥ 1.
Sequence GCACTTTTATTTCTTAGA has a remaining target (mRNA or protein) (fraction of control) [4] of 0.3.
GCAGCATTAATCACAGGA was tested, and the remaining target (mRNA or protein) (fraction of control) [4] was ≥ 1.
With GCAGCCTTGTCCCTTGAAGAG the remaining target (mRNA or protein) (fraction of control) [3] was 0.73.
GCATGGCTTTGCTTTTAT was tested, and the remaining target (mRNA or protein) (fraction of control) [4] was ≥ 1.
Work on GCCTCTTGTAACAGTGCTGA yielded a remaining target (mRNA or protein) (fraction of control) [2] of 0.47.
In the case of GCCTGAAGACAGCTTCCCAAC, the remaining target (mRNA or protein) (fraction of control) [3] is reported as 0.24.
GCTCGGGCTCGGAGCCGCCA was tested, and the remaining target (mRNA or protein) (fraction of control) [2] was 0.47.
With GCTCTGCTGTCAAGTGTT the remaining target (mRNA or protein) (fraction of control) [4] was 0.43.
Work on GCTGAGCAGGTCCCCCTTCTC yielded a remaining target (mRNA or protein) (fraction of control) [3] of 0.8.
In the case of GCTGGAAGACTCCTCCCAGGT, the remaining target (mRNA or protein) (fraction of control) [3] is reported as 0.35.
In the case of GCTGTGCAAGCTCTTCTCAC, the remaining target (mRNA or protein) (fraction of control) [2] is reported as 0.63.
Sequence GGAGACACAGCAATACGTGC has a remaining target (mRNA or protein) (fraction of control) [2] of 0.61.
GGAGCCGCCATTGTTGGGAG gave a remaining target (mRNA or protein) (fraction of control) [2] of 0.91.
Sequence GGCACTCACCTCCTCCTTGTT has a remaining target (mRNA or protein) (fraction of control) [3] of 0.94.
For GGCAGCAAACACATTTTC, the remaining target (mRNA or protein) (fraction of control) [1] was ≥ 1.
Work on GGCTCGGAGCCGCCATTGTT yielded a remaining target (mRNA or protein) (fraction of control) [2] of 0.56.
With GGGAAATTCCCAGGACCAGGG the remaining target (mRNA or protein) (fraction of control) [3] was ≥ 1.
For GGGATAGCTGGTAGTTTAG, the remaining target (mRNA or protein) (fraction of control) [3] was ≥ 1.
Sequence GGGTCTCAGTATGCTGCC has a remaining target (mRNA or protein) (fraction of control) [4] of 0.79.
In the case of GGTCAACTTCTCCAGGCT, the remaining target (mRNA or protein) (fraction of control) [4] is reported as 0.35.
With GGTCTCCCTCCCCAACTCTCC the remaining target (mRNA or protein) (fraction of control) [3] was 0.18.
GGTTCCGTAAGGAAGGCTGG gave a remaining target (mRNA or protein) (fraction of control) [3] of 0.94.
With GTAAGTAATCTGGCATTT the remaining target (mRNA or protein) (fraction of control) [4] was ≥ 1.
In the case of GTAGTCCACCATCCTGAT, the remaining target (mRNA or protein) (fraction of control) [1] is reported as ≥ 1.
GTCGCCTCACAGAGCAATGAC was tested, and the remaining target (mRNA or protein) (fraction of control) [3] was ≥ 1.
With GTCTGATGTAGCAGCGATAT the remaining target (mRNA or protein) (fraction of control) [2] was 0.53.
Sequence GTGAAATCCCAGTGTTGTTC has a remaining target (mRNA or protein) (fraction of control) [2] of 0.91.
GTGGACAACGATGGCTGT was tested, and the remaining target (mRNA or protein) (fraction of control) [1] was ≥ 1.
With GTGTTTCTTTGATGCTCT the remaining target (mRNA or protein) (fraction of control) [1] was ≥ 1.
For GTTCATCACAAAAGAGCAGG, the remaining target (mRNA or protein) (fraction of control) [2] was 0.89.
GTTTCCCCTCCATCTCCCTCC gave a remaining target (mRNA or protein) (fraction of control) [3] of 0.26.
With GTTTCTCCTAATCTTCAA the remaining target (mRNA or protein) (fraction of control) [1] was ≥ 1.
For TAAAACCCTTCACAGAAG, the remaining target (mRNA or protein) (fraction of control) [4] was ≥ 1.
TACAATTTCAATAATGCT gave a remaining target (mRNA or protein) (fraction of control) [4] of 0.62.
In the case of TAGAAATGAATTTAAGATGT, the remaining target (mRNA or protein) (fraction of control) [2] is reported as ≥ 1.
TAGACGATAAAGGGGTCAGAG was tested, and the remaining target (mRNA or protein) (fraction of control) [3] was ≥ 1.
TAGAGTCTGATGTAGCAGCG showed a remaining target (mRNA or protein) (fraction of control) [2] of 0.79.
TAGCAGCGATATCAATCGAC was tested, and the remaining target (mRNA or protein) (fraction of control) [2] was 0.55.
TATCACATCAGTAATCTATT was tested, and the remaining target (mRNA or protein) (fraction of control) [2] was ≥ 1.
With TATCTCCCTCGTCTCCCATCT the remaining target (mRNA or protein) (fraction of control) [3] was 0.27.
TATTTTAATGTTCACCTCTT was tested, and the remaining target (mRNA or protein) (fraction of control) [2] was ≥ 1.
TCATCTCCTGGGCTGTCT showed a remaining target (mRNA or protein) (fraction of control) [4] of 0.6.
Work on TCCACTCCCCCGATCCACTCA yielded a remaining target (mRNA or protein) (fraction of control) [3] of 0.11.
TGAAGTGTCTTGAAGCTG was tested, and the remaining target (mRNA or protein) (fraction of control) [4] was ≥ 1.
In the case of TGATCCACTCCCCCCTCCACT, the remaining target (mRNA or protein) (fraction of control) [3] is reported as 0.06 and 0.1.
TGATGTAGCAGCGATATCAA was tested, and the remaining target (mRNA or protein) (fraction of control) [2] was 0.72.
For TGGCTTGAACTTGACGGA, the remaining target (mRNA or protein) (fraction of control) [4] was ≥ 1.
Sequence TGTAGTGCTACCTCTTTT has a remaining target (mRNA or protein) (fraction of control) [4] of 0.31.
TGTGTCCTTCCAGGATTTGG was tested, and the remaining target (mRNA or protein) (fraction of control) [2] was 0.7.
TGTGTGACTCATGAAGCT gave a remaining target (mRNA or protein) (fraction of control) [4] of 0.77.
For TTAACGGAATTTAGACTC, the remaining target (mRNA or protein) (fraction of control) [4] was ≥ 1.
With TTAAGGAAGAAATACACA the remaining target (mRNA or protein) (fraction of control) [4] was ≥ 1.
With TTCAGTGGCATTCAATCA the remaining target (mRNA or protein) (fraction of control) [4] was 0.77.
With TTCCCAACGCTGGGTCCTCCA the remaining target (mRNA or protein) (fraction of control) [3] was ≥ 1.
TTCTTGCCCTCCCTCCCTACT gave a remaining target (mRNA or protein) (fraction of control) [3] of 0.12.
TTGCTGTTCTCCCTCCTGGCT gave a remaining target (mRNA or protein) (fraction of control) [3] of 0.15.
TTTAAACACTAGCGATTATG was tested, and the remaining target (mRNA or protein) (fraction of control) [2] was ≥ 1.
TTTCTCTCTCCTCTTCCC showed a remaining target (mRNA or protein) (fraction of control) [4] of 0.9.
TTTGACATCATCACTGTT was tested, and the remaining target (mRNA or protein) (fraction of control) [4] was ≥ 1.
TTTGTTTTAATAAAGATACA was tested, and the remaining target (mRNA or protein) (fraction of control) [2] was 0.88.

— the OligoGym collection
